These are literature values, as cited in publication PMC6270667, “Loddigesiinols G–J: α-Glucosidase Inhibitors from Dendrobium loddigesii” (Molecules, 2014).

Molecules are shown by their SMILES.

This data set addresses α-glucosidase (Saccharomyces cerevisiae, UniProt P53341). Also noted: method as in PMID 16478243. As to conditions: reported in the literature.

Chain of α-glucosidase (P53341 whole entry): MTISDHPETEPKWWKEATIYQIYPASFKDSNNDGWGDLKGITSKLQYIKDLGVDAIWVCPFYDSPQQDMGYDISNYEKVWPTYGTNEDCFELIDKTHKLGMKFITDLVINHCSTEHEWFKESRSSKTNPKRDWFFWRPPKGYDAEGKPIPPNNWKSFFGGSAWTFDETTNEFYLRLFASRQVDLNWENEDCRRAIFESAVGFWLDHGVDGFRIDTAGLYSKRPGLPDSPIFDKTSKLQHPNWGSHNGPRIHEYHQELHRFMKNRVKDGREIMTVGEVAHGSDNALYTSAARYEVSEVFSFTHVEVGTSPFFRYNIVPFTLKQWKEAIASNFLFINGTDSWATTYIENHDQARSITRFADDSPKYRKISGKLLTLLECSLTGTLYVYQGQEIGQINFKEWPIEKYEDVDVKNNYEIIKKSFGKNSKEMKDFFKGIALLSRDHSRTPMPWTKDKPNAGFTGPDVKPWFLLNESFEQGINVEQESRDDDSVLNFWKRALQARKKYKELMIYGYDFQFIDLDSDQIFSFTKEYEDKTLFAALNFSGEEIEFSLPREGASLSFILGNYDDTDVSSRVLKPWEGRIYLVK

Consider `Oc1ccc(/C=C/c2cc(O)cc(O)c2)cc1` [trans-Resveratrol, trans-resveratrol], for which the “α-glucosidase inhibitory effect compared with the clinical drug acarbose” value is “more potent inhibitory effect than the clinical drug acarbose”.
